Experimental findings from patent publication US20260114449A1, “CONCENTRATED ANTIMICROBIAL SOLUTIONS CONTAINING SPARINGLY SOLUBLE ANTIMICROBIAL AGENTS” (Virox Technologies Inc., priority 2023, published 2026) are described below.

This data set can be described thus: Solubility of salicylic acid in concentrated solution. The class given is physicochemical. The method, then: Solutions 18-22 consisting of a solvent (Tamisolve NxG), a sparingly soluble antimicrobial agent (salicylic acid), and an antimicrobial surfactant (Biosoft S-101 LS) were prepared and are summarized in Table 3.
Solution 42 was prepared and visually inspected at the time of preparation, after 24 hours of storage at room temperature, and after one cycle of freezing and thawing.

In the case of `O=C(O)c1ccccc1O` [salicylic acid, Salicylic acid], the “amount of salicylic acid effectively solubilized” value (Solution 42: Tamisolve NxG 35 wt. %, Biosoft S-101 LS 45 wt. %) turned out to be 20 wt. %. The “maximum amount of salicylic acid that was solubilized” value (Table 3 solutions: Tamisolve NxG 23.54 wt. % plus Biosoft S-101 LS) came out at 13 wt. %. Moreover, the “solubility of salicylic acid relative to its solubility in water” value (in Solution 42) is on record as “about 83 times”.
